Converted amounts (≈) assume the structure as drawn. “Also recorded” adds a separate entry of the source.
What was measured:
Assay type in all cases: cell-based, Staphylococcus aureus
S. aureus NRS384 [1] = experiment: Broth minimum inhibitory concentration (MIC) assay 1, S. aureus growth inhibition; conditions: S. aureus NRS384 in TSB, 24 h at 37° C., OD600 nm; for MIC: Staphylococcus aureus
Method: To test the potency of rifamycin analogs of the disclosure in vitro, a broth growth inhibition assay was developed. For the assay, S. aureus NRS384 was grown in Tryptic Soy Broth (TSB) overnight, then sub-cultured 1:50 in fresh TSB and grown for an additional two hours. The culture was then pelleted via centrifugation and washed twice in PBS. The culture was then diluted to 1×10^4 cfu/mL in TSB and 50 μL of the suspension was added per well to a 96 well microtiter dish in duplicate. A dilution series of the indicated antibiotic (an analog according to the disclosure or a previously known analog Rifampicin) was added 1:1 for a final starting concentration of 1×10^−5 M with 1:3 dilutions. The plates were incubated at 37° C. with shaking for 24 h and then the OD600 nm was read on a Spectramax i3 Minimax 300.
A plot of the S. aureus inhibition assay conducted with rifamycin analogs according to the disclosure is shown as FIG. 1.

[2] = system: intracellular S. aureus NRS384 in THP-1 macrophages; experiment: Intracellular killing assay 1 (rifamycin analogs, S. aureus in THP-1 macrophages); conditions: for MIC: Staphylococcus aureus, NRS384, lowest concentration that resulted in intracellular S. aureus eradication
Method: (§1) THP-1 monocytic cell line was grown in media (RMPI+10% FBS+1% Penicillin/Streptomycin), then seeded at a density of 1e5 cells/well in a 96 well plate and differentiated into macrophages for three days prior to infection using 200 nM PMA. An overnight culture of S. aureus NRS384 was grown in RPMI, washed twice with PBS and resuspended at 1e7 cfu/mL in PBS. THP-1 were washed with warm media (RMPI without FBS) to remove the Penicillin/Streptomycin and then infected with the S. aureus suspension at a multiplicity of infection of 10:1 (S. aureus: macrophages). Plates were spun at 300×g for 5 minutes to synchronize adhesion of the bacteria, then incubated at 37° C. for 2 hours. Free-floating bacteria were removed by washing 2× with warm media and remaining extracellular S. aureus were killed by addition of media containing gentamicin (50 ug/mL). After 1 h, media was aspirated and the indicated compound was added to infected macrophages in media containing 50 µg/mL gentamicin to prevent extracellular growth of S. aureus. After 2 h, plates were washed 2× with warm RPMI without FBS, and 100 ul of THP-1 lysis buffer (0.1% Triton in PBS) was added to each well. S. aureus survival was enumerated by colony forming units through serial dilution and plating onto TSA.

[3] = system: intracellular S. aureus NRS384 in THP-1 macrophages; experiment: Intracellular killing assay 2 (rifamycin analogs, S. aureus in THP-1 macrophages); conditions: Staphylococcus aureus, NRS384, 2 h; lowest concentration giving intracellular S. aureus below limit of detection (50 cfu/mL) in THP-1 macrophages; median of at least two experiments; read-out: S. aureus Intracellular killing MIC
Method: as §1, with “[…] The compounds were” for “After 1 h, media was aspirated and the indicated compound was”, “added” for “added to infected macrophages”, “hours,” for “h,”
The intracellular MIC value indicated represents the median value of at least two independent experiments, unless indicated otherwise.

S. aureus NRS384 [4] = experiment: Broth minimum inhibitory concentration (MIC) assay 2; conditions: Staphylococcus aureus; S. aureus NRS384 in TSB, 24 hours at 37° C., OD600; median of at least two independent experiments; read-out: S. aureus Broth MIC
Method: To test the potency of rifamycin analogs of the disclosure in vitro, a broth growth inhibition assay was developed. For the assay, S. aureus NRS384 was grown in Tryptic Soy Broth (TSB) overnight, then sub-cultured 1:50 in fresh TSB and grown for an additional two hours. The culture was then pelleted via centrifugation and washed twice in PBS. The culture was then diluted to 1×10^6 cfu/mL in TSB and 100 μL of the suspension was added per well to a 2 mL dilution plate in triplicate. […] The plates were sealed and incubated at 37° C. with shaking for 24 hours, then 150 μL of each sample was added to 96 well microtiter plates and the OD600 nm was read on a Spectramax i3 Minimax 300.
The broth MIC experiments were assessed in at least two independent experiments and the median value is captured below unless indicated otherwise.

Row | Compound | MIC (S. aureus NRS384 [1]) | S. aureus Broth MIC (S. aureus NRS384 [1]) | MIC (S. aureus NRS384 [4]) | MIC ([2]; 2 h with compound) | intracellular S. aureus killing capacity compared to rifampicin (in words) [2] | MIC [3] | Intracellular killing MIC ([2]; lowest concentration that resulted in intracellular S. aureus eradication, 2 h with compound)
1 | CO[C@H]1/C=C/O[C@@]2(C)Oc3c(C)c(O)c4c(=O)c(c5n(C)c6cc(O)ccc6nc-5c4c3C2=O)NC(=O)/C(C)=C\C=C\[C@H](C)[C@H](O)[C@@H](C)[C@@H](O)[C@@H](C)[C@H](OC(C)=O)[C@@H]1C [Analog 1d, Rifamycin 4-OH-Phenol N-Methyl analogs] | 0.37 µM (≈ 0.301 µg/mL) |  |  | > 1 µM |  |  | 
2 | CO[C@H]1/C=C/O[C@@]2(C)Oc3c(C)c(O)c4c(=O)c(c5oc6cc(OC7CCNCC7)ccc6nc-5c4c3C2=O)NC(=O)/C(C)=C\C=C\[C@H](C)[C@H](O)[C@@H](C)[C@@H](O)[C@@H](C)[C@H](OC(C)=O)[C@@H]1C [Analog 14] | 0.041 µM (≈ 0.0362 µg/mL) |  |  | 1 µM (≈ 0.884 µg/mL) | increased intracellular S. aureus killing capacity compared to rifampicin |  | 
3 | COc1ccc2nc3c4c5c6c(C)c(O)c4c(=O)c(c-3oc2c1)NC(=O)/C(C)=C\C=C\[C@H](C)[C@H](O)[C@@H](C)[C@@H](O)[C@@H](C)[C@H](OC(C)=O)[C@H](C)[C@@H](OC)/C=C/O[C@@](C)(O6)C5=O [Analog 1a, Rifamycin 4-MeO-Phenol Analogs] | 0.014 µM (≈ 0.0114 µg/mL) |  |  | 1 µM (≈ 0.815 µg/mL) | increased intracellular S. aureus killing capacity compared to rifampicin |  | 
4 | CO[C@H]1/C=C/O[C@@]2(C)Oc3c(C)c(O)c4c(=O)c(c5oc6cc(OCc7ccccc7)ccc6nc-5c4c3C2=O)NC(=O)/C(C)=C\C=C\[C@H](C)[C@H](O)[C@@H](C)[C@@H](O)[C@@H](C)[C@H](OC(C)=O)[C@@H]1C [Analog 1b, Rifamycin 4-BnO-Phenol Analogs] | 0.12 µM (≈ 0.107 µg/mL) |  |  | > 1 µM |  |  | 

Second part, led by results:

Row | MIC (S. aureus NRS384 [1]) | S. aureus Broth MIC (S. aureus NRS384 [1]) | MIC (S. aureus NRS384 [4]) | Compound | MIC ([2]; 2 h with compound) | intracellular S. aureus killing capacity compared to rifampicin (in words) [2] | MIC [3] | Intracellular killing MIC ([2]; lowest concentration that resulted in intracellular S. aureus eradication, 2 h with compound)
5 | 0.041 µM (≈ 0.0352 µg/mL) |  |  | CNCCOc1ccc2nc3c4c5c6c(C)c(O)c4c(=O)c(c-3oc2c1)NC(=O)/C(C)=C\C=C\[C@H](C)[C@H](O)[C@@H](C)[C@@H](O)[C@@H](C)[C@H](OC(C)=O)[C@H](C)[C@@H](OC)/C=C/O[C@@](C)(O6)C5=O [Analog 16d] | 1 µM (≈ 0.858 µg/mL) | increased intracellular S. aureus killing capacity compared to rifampicin |  | 
6 |  | 0.0046 µM | 0.00391 µM (≈ 0.00322 µg/mL) | CO[C@H]1/C=C/O[C@@]2(C)Oc3c(C)c(O)c4c(O)c(c(/C=N/N5CCN(C)CC5)c(O)c4c3C2=O)NC(=O)/C(C)=C\C=C\[C@H](C)[C@H](O)[C@@H](C)[C@@H](O)[C@@H](C)[C@H](OC(C)=O)[C@@H]1C [Rifampicin, rifampicin, reference compound] |  |  | 1 µM (≈ 0.823 µg/mL) | >1.0E−06
7 | 0.0015 µM (≈ 0.00131 µg/mL) |  |  | CO[C@H]1/C=C/O[C@@]2(C)Oc3c(C)c(O)c4c(=O)c(c5oc6cc(OCCN(C)C)ccc6nc-5c4c3C2=O)NC(=O)/C(C)=C\C=C\[C@H](C)[C@H](O)[C@@H](C)[C@@H](O)[C@@H](C)[C@H](OC(C)=O)[C@@H]1C [Analog 16a] | 0.04 µM (≈ 0.0349 µg/mL) | increased intracellular S. aureus killing capacity compared to rifampicin; also recorded: highest activity |  | 
8 | 0.0046 µM (≈ 0.00388 µg/mL) |  |  | CO[C@H]1/C=C/O[C@@]2(C)Oc3c(C)c(O)c4c(=O)c(c5oc6cc(OCCN)ccc6nc-5c4c3C2=O)NC(=O)/C(C)=C\C=C\[C@H](C)[C@H](O)[C@@H](C)[C@@H](O)[C@@H](C)[C@H](OC(C)=O)[C@@H]1C [Analog 16e] | 1 µM (≈ 0.844 µg/mL) | increased intracellular S. aureus killing capacity compared to rifampicin |  | 
9 |  |  | 0.0156 µM (≈ 0.0136 µg/mL) | CO[C@H]1/C=C/O[C@@]2(C)Oc3c(C)c(O)c4c(=O)c(c5oc6cccc(OCCN(C)C)c6nc-5c4c3C2=O)NC(=O)/C(C)=C\C=C\[C@H](C)[C@H](O)[C@@H](C)[C@@H](O)[C@@H](C)[C@H](OC(C)=O)[C@@H]1C [Analog 71] |  |  | > 1 µM | 
